Key:
LPS-induced weight loss = format: in vivo, mice (C3H/HeN)
Method: (§1) Animal housing. […] For pharmacological inhibitor studies, male C3H/HeN mice (Harlan Sprague Dawley, Inc., Indianapolis, Ind.) 10-12 wks of age were evaluated according to the method of Gross et al., Am J Physiol 278: R1415-23, 2000. See also Silver et al., J Clin Invest 95: 725-31, 1995. […] Control mice designated “WT” for the COX KO experiments were WT and heterozygous littermates arising from the COX-2 heterozygous matings. All mouse protocols were in accordance with NIH guidelines and approved by the Animal Care and Use Committee of Washington University School of Medicine.

leptin = assay: Plasma leptin after LPS (ELISA); format: in vivo, mice (C3H/HeN); details: after LPS (3 h and 16 h)
Text: (§2) Serum corticosterone, leptin, and IL-6 measurements.

CRH mRNA = assay: Hypothalamic in situ mRNA hybridization, CRH; format: in vivo, mice (C3H/HeN); details: Compound 1/LPS group; 16 h after LPS with food withdrawal
Method: Hypothalamic in situ mRNA hybridization. […] After 24 h immersion in 4% paraformaldehyde, hypothalami were cryoprotected in 10% sucrose in DEPC D-PBS. Samples were embedded in OCT (Sakura Finetek USA, Inc., Torrance, Calif.), cut into 10 micron sections on a cryostat, and thaw mounted onto Superfrost plus slides (Fisher Scientific, Pittsburgh, Pa.). In situ hybridization utilized α-^33P-UTP-labelled 320 base anti-sense riboprobe from the mouse CRH gene or a 511 base anti-sense riboprobe from the rat neuropeptide Y (NPY) cDNA (generously provided by Dr. Steven Sabol, NHLBI, NIH) by methods described (e.g., Muglia et al., J Neurosci 19: 2051-8, 1999). For CRH and NPY mRNA detection, the regions of the hypothalamic paraventicular and arcuate nuclei were determined by Nissl staining and light microscopy. Six sections spanning each nucleus were hybridized to CRH (paraventricular nucleus) or NPY (arcuate nucleus) probes, and the two sections of peak intensity imaged for densitometric analysis. Hybridizing probes were quantitated by exposure of slides to Hyperfilm-βMax (Amersham Life Science, Inc., Arlington Heights, Ill.) with densitometric analysis employing NIH Image Software.

[1] = 24 h period following LPS
Method: LPS-induced anorexia. C3H/HeN male mice were singly housed and acclimatized for at least 2 days to cages with grid bottoms prior to treatments. Body weight and food intake was measured daily until a stable baseline was obtained. Mice received either vehicle (phosphate buffered saline; PBS) or 100 μg of lipopolysaccharide (Escherichia coli 0111 :B4, Sigma, St. Louis, Mo.) in PBS via shallow midline, mid-abdominal, intraperitoneal injection. […] To determine the effect of COX inhibition, mice were pretreated with either vehicle (phosphate buffered saline plus 1% Tween 80), or vehicle plus agent 30 minutes prior to i.p. injection of LPS or vehicle, and re-dosed at 8 and 24 hrs after LPS. Cyclooxygenase inhibitors were administered via gavage using olive-tipped needles.

IL-6 = assay: Plasma IL-6 after LPS (ELISA); format: in vivo, mice (C3H/HeN)
Text: as §2

[2] = mouse, in vivo, 10 mg/kg
Method: as §1

## COc1ccc(-n2nc(C(F)(F)F)cc2-c2ccc(Cl)cc2)cc1 [Compound 2]
LPS-induced weight loss; 3 days after treatment, 300 μg/dose (10 mg/kg) gavage plus LPS
  body weight in comparison to the vehicle/LPS group: sustained weight reduction

## NS(=O)(=O)c1ccc(-n2nc(C(F)(F)F)cc2-c2ccc(Cl)cc2)cc1 [Compound 1]
leptin
  magnitude of induction of leptin, vehicle/LPS vs. Compound 1/LPS: did not differ
CRH mRNA
  elevation of CRH mRNA in the paraventricular nucleus of the hypothalamus: approximately 3 fold
LPS-induced weight loss; 2 and 3 days after LPS treatment
  difference in weight loss between LPS-treated Compound 1 and Compound 2 groups: remained significant
[1]
  hypophagic response after LPS: attenuated, but did not completely block the hypophagic response
IL-6; 3 h after LPS
  magnitude of early induction of plasma IL-6 vs. LPS alone: no change
IL-6; 16 hours after LPS
  sustained increases in plasma IL-6 vs. LPS alone: no change

## COc1ccc2c(c1)c(CC(=O)O)c(C)n2C(=O)c1ccc(Cl)cc1 [indomethacin]
[2]
  change in body weight relative to vehicle-treated control mice: no change in body weight
LPS-induced weight loss; 100 μg LPS i.p., gavage 30 min before, 8 and 24 h after LPS, indomethacin 150 μg/dose, Compound 1 300 μg/dose
  weight loss associated with LPS administration, vs. vehicle/LPS: tended to reduce the weight loss

— patent US20030087942A1, “Method for the treatment and prevention of cachexia” (Washington University, priority 2001, published 2003)
